Results: patent US20240033373A1, “TARGETED, INTRACELLULAR DELIVERY OF THERAPEUTIC PEPTIDES USING SUPRAMOLECULAR NANOMATERIALS” (The University of Chicago, priority 2020, published 2024)
Where two headings read alike, the source gives them in different places.

Columns and labels:
[1] = tested on: DLBCL cell lines; experiment: Cell death assay (CellTiter-Glo 2.0), several lines stated together; assay type: cell-based, human
Protocol: Plotted points are means of duplicates+/−S.E.M., normalized to an untreated control that received the same pre-treatment, and fitted using nonlinear regression.
(§1) Cell Death Assays Treatments were prepared in 96-well plates in 50 μL at 2× concentration. Cells were suspended at 0.2 million cells per mL, and 50 μL (10,000 cells) were added to each well and pipette-mixed. The plates were incubated for 24-72 hours, depending on the experiment, then 100 μL of CellTiter-Glo 2.0 (Promega) was added and pipette-mixed, followed by luminescence reading (SpectraMax iD5, Molecular Devices).

[2] = tested on: SU-DHL-5; experiment: Cell death assay (CellTiter-Glo 2.0); assay type: cell-based, human; details: 24 h ATSP-7041 pre-treatment, then BH3 mimetic
Protocol: as §1
(§2) First, SU-DHL-5 was treated with equivalent doses of SAH-MS1-18 either as a free drug, inside of αCD19- or αOspA-PSOMs, or on the outside of empty αCD19- or αOspA-PSOMs (FIG. 14A). […] Other DLBCL cell lines, including OCILy1, OCI-Ly3, and OCI-Ly8, were treated (FIG. 14B).

[3] = tested on: OCI-Ly3; experiment: Cell death assay (CellTiter-Glo 2.0); assay type: cell-based, human; details: 24 h ATSP-7041 pre-treatment, then BH3 mimetic
Protocol: as §1, §2

[4] = pipettable melt of PEG-SS—PPS and PEG(500)DME
[5] = 24 h ATSP-7041 pre-treatment vs vehicle, washed, then BH3 mimetic, WTp53 lines

Structure (SMILES)	change in cell death sensitivity after p53-reactivation [1, 5]	change in cell death sensitivity after p53-reactivation [2]	change in cell death sensitivity after p53-reactivation [3]	change in cell death sensitivity after p53-reactivation [1]	solubility in polymer melt [4]
Cc1c(-c2ccc(N3CCc4cccc(C(=O)Nc5nc6ccccc6s5)c4C3)nc2C(=O)O)cnn1CC12CC3CC(CC(C3)C1)C2 [A-1331852]	no notable change in sensitivity				
CC1(C)CCC(CN2CCN(c3ccc(C(=O)NS(=O)(=O)c4ccc(NCC5CCOCC5)c([N+](=O)[O-])c4)c(Oc4cnc5[nH]ccc5c4)c3)CC2)=C(c2ccc(Cl)cc2)C1 [ABT-199]	no notable change in sensitivity				
Cc1c(-c2c(-c3ccc(F)o3)sc3ncnc(O[C@H](Cc4ccccc4OCc4ccnn4CC(F)(F)F)C(=O)O)c23)ccc(OCCN2CCN(C)CC2)c1Cl [S63845]		made much more sensitive	made much more sensitive	much more sensitive	highly soluble
